The record followed here is US11034701B2, “Drug delivery and imaging chemical conjugate, formulations and methods of use thereof” (NanoPhagix LLC, priority 2015, dated 2021).

The series can be described thus: Stability in HPLC mobile phases. In kind it is physicochemical. The settings on record: HPLC mobile phases: MeOH/H2O/0.05% TFA, acetonitrile/H2O. The text has this:
• 1. The HPLC purity may not be true. […] The HPLC purity is greatly dependent upon the HPLC mobile phases. With MeOH/H2O/0.05% of TFA buffer, the HPLC purity is 90%. With MeOH/H2O mobile phase, the HPLC purity is 91.7%. With acetonitrile/H2O mobile phase, the HPLC purity is 99%. […] HPLC condition for the compound of Formula 2

As to `CO[C@H]1C[C@@H]2CC[C@@H](C)[C@@](O)(O2)C(=O)C(=O)N2CCCC[C@H]2C(=O)O[C@H]([C@H](C)C[C@@H]2CC[C@@H](OC(=O)CCCCCOC(=O)c3c(I)c(NC(C)=O)c(I)c(NC(C)=O)c3I)[C@H](OC)C2)CC(=O)[C@H](C)/C=C(\C)[C@@H](O)[C@@H](OC)C(=O)[C@H](C)C[C@H](C)/C=C/C=C/C=C/1C` [Formula 2], the “stability under HPLC conditions” value is on record as “not stable under some HPLC conditions”. The result for `CO[C@H]1C[C@@H]2CC[C@@H](C)[C@@](O)(O2)C(=O)C(=O)N2CCCC[C@H]2C(=O)O[C@H]([C@H](C)C[C@@H]2CC[C@@H](O)[C@H](OC)C2)CC(=O)[C@H](C)/C=C(\C)[C@@H](O)[C@@H](OC)C(=O)[C@H](C)C[C@H](C)/C=C/C=C/C=C/1C` [rapamycin] reads “same stability issues in HPLC mobile phases”.
